PubChem BioAssay (NCI)
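Five compound concentrations were applied to cells in 96-well plates for 48 hours; endpoints were derived by simple linear interpolation of the resulting dose-response curve. At the TGI there is no net growth.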

Columns and labels:
Assay in all cases: DTP human tumour cell line panel, 48 h
OVCAR-3 ovarian = test system: OVCAR-3 ovarian
LOX IMVI melanoma = test system: LOX IMVI melanoma
HOP-18 NSCLC = test system: HOP-18 NSCLC
SK-OV-3 ovarian = test system: SK-OV-3 ovarian
SNB-19 CNS = test system: SNB-19 CNS
SW-620 colon = test system: SW-620 colon
HOP-62 NSCLC = test system: HOP-62 NSCLC
SK-MEL-28 melanoma = test system: SK-MEL-28 melanoma
HT29 colon = test system: HT29 colon
786-0 renal = test system: 786-0 renal
SNB-75 CNS = test system: SNB-75 CNS
UACC-257 melanoma = test system: UACC-257 melanoma
NCI-H226 lung = test system: NCI-H226 lung
OVCAR-8 ovarian = test system: OVCAR-8 ovarian
M19-MEL melanoma = test system: M19-MEL melanoma
SK-MEL-5 melanoma = test system: SK-MEL-5 melanoma
KM20L2 colon = test system: KM20L2 colon
UACC-62 melanoma = test system: UACC-62 melanoma
M14 melanoma = test system: M14 melanoma
MALME-3M melanoma = test system: MALME-3M melanoma
DMS 114 small cell lung = test system: DMS 114 small cell lung
HL-60(TB) leukemia = test system: HL-60(TB) leukemia
XF 498 CNS = test system: XF 498 CNS
RPMI-8226 leukemia = test system: RPMI-8226 leukemia
COLO 205 colon = test system: COLO 205 colon
DMS 273 small cell lung = test system: DMS 273 small cell lung
LXFL 529 NSCLC = test system: LXFL 529 NSCLC
OVCAR-4 ovarian = test system: OVCAR-4 ovarian
RXF 393 renal = test system: RXF 393 renal
KM12 colon = test system: KM12 colon
A549 NSCLC = test system: A549 NSCLC
IGROV1 ovarian = test system: IGROV1 ovarian
HCT-15 colon = test system: HCT-15 colon
DLD-1 colon = test system: DLD-1 colon
K-562 leukemia = test system: K-562 leukemia
SK-MEL-2 melanoma = test system: SK-MEL-2 melanoma
NCI-H460 lung = test system: NCI-H460 lung
SN12C renal = test system: SN12C renal
A498 renal = test system: A498 renal
CAKI-1 renal = test system: CAKI-1 renal
ACHN renal = test system: ACHN renal
UO-31 renal = test system: UO-31 renal
MOLT-4 leukemia = test system: MOLT-4 leukemia
CCRF-CEM leukemia = test system: CCRF-CEM leukemia
NCI-H23 lung = test system: NCI-H23 lung
TK-10 renal = test system: TK-10 renal
HOP-92 NSCLC = test system: HOP-92 NSCLC
HCT-116 colon = test system: HCT-116 colon
SF-268 CNS = test system: SF-268 CNS
U251 CNS = test system: U251 CNS
NCI-H522 lung = test system: NCI-H522 lung
RXF-631 renal = test system: RXF-631 renal
OVCAR-5 ovarian = test system: OVCAR-5 ovarian
HCC-2998 colon = test system: HCC-2998 colon
NCI/ADR-RES ovarian = test system: NCI/ADR-RES ovarian
BT-549 breast = test system: BT-549 breast
SF-295 CNS = test system: SF-295 CNS
HS 578T breast = test system: HS 578T breast
SF-539 CNS = test system: SF-539 CNS
MCF7 breast = test system: MCF7 breast
PC-3 prostate = test system: PC-3 prostate
SNB-78 CNS = test system: SNB-78 CNS
MDA-N = test system: MDA-N
SR leukemia = test system: SR leukemia
EKVX NSCLC = test system: EKVX NSCLC
T-47D breast = test system: T-47D breast
MDA-MB-231 breast = test system: MDA-MB-231 breast
DU-145 prostate = test system: DU-145 prostate
MDA-MB-435 = test system: MDA-MB-435

Q: How did the TGI (OVCAR-3 ovarian) turn out when COC(=O)C(=O)C(C(=O)C(=O)Nc1ccc([N+](=O)[O-])cc1)c1nc2ccccc2[nH]c1=O (centres undefined) was run?
A: > 100 µM

Q: And the TGI (LOX IMVI melanoma)?
A: > 100 µM

Q: And the TGI (HOP-18 NSCLC)?
A: > 100 µM

Q: What about the TGI (SK-OV-3 ovarian) of the same molecule?
A: > 100 µM

Q: What about the TGI (SNB-19 CNS) of the same molecule?
A: > 100 µM

Q: And the TGI (SW-620 colon)?
A: > 100 µM

Q: What about the TGI (HOP-62 NSCLC) of the same molecule?
A: > 100 µM

Q: What about the TGI (SK-MEL-28 melanoma) of the same molecule?
A: > 100 µM

Q: And the TGI (HT29 colon)?
A: > 100 µM

Q: What about the TGI (786-0 renal) of the same molecule?
A: > 100 µM

Q: And the TGI (SNB-75 CNS)?
A: > 100 µM

Q: What about the TGI (UACC-257 melanoma) of the same molecule?
A: > 100 µM

Q: What about the TGI (NCI-H226 lung) of the same molecule?
A: > 100 µM

Q: And the TGI (OVCAR-8 ovarian)?
A: > 100 µM

Q: What about the TGI (M19-MEL melanoma) of the same molecule?
A: > 100 µM

Q: What about the TGI (SK-MEL-5 melanoma) of the same molecule?
A: > 100 µM

Q: And the TGI (KM20L2 colon)?
A: > 100 µM

Q: And the TGI (UACC-62 melanoma)?
A: > 100 µM

Q: What about the TGI (M14 melanoma) of the same molecule?
A: > 100 µM

Q: What about the TGI (MALME-3M melanoma) of the same molecule?
A: > 100 µM

Q: And the TGI (DMS 114 small cell lung)?
A: > 100 µM

Q: And the TGI (HL-60(TB) leukemia)?
A: > 100 µM

Q: What about the TGI (XF 498 CNS) of the same molecule?
A: > 100 µM

Q: What about the TGI (RPMI-8226 leukemia) of the same molecule?
A: > 100 µM

Q: And the TGI (COLO 205 colon)?
A: > 100 µM

Q: What about the TGI (DMS 273 small cell lung) of the same molecule?
A: > 100 µM

Q: What about the TGI (LXFL 529 NSCLC) of the same molecule?
A: > 100 µM

Q: And the TGI (OVCAR-4 ovarian)?
A: > 100 µM

Q: And the TGI (RXF 393 renal)?
A: > 100 µM

Q: What about the TGI (KM12 colon) of the same molecule?
A: > 100 µM

Q: What about the TGI (A549 NSCLC) of the same molecule?
A: > 100 µM

Q: And the TGI (IGROV1 ovarian)?
A: > 100 µM

Q: What about the TGI (HCT-15 colon) of the same molecule?
A: > 100 µM

Q: And the TGI (DLD-1 colon)?
A: > 100 µM

Q: And the TGI (K-562 leukemia)?
A: > 100 µM

Q: What about the TGI (SK-MEL-2 melanoma) of the same molecule?
A: > 100 µM

Q: And the TGI (NCI-H460 lung)?
A: > 100 µM

Q: What about the TGI (SN12C renal) of the same molecule?
A: > 100 µM

Q: What about the TGI (A498 renal) of the same molecule?
A: > 100 µM

Q: And the TGI (CAKI-1 renal)?
A: > 100 µM

Q: And the TGI (ACHN renal)?
A: > 100 µM

Q: What about the TGI (UO-31 renal) of the same molecule?
A: > 100 µM

Q: And the TGI (MOLT-4 leukemia)?
A: > 100 µM

Q: What about the TGI (CCRF-CEM leukemia) of the same molecule?
A: > 100 µM

Q: What about the TGI (NCI-H23 lung) of the same molecule?
A: > 100 µM

Q: And the TGI (TK-10 renal)?
A: > 100 µM

Q: And the TGI (HOP-92 NSCLC)?
A: > 100 µM

Q: And the TGI (HCT-116 colon)?
A: > 100 µM

Q: And the TGI (SF-268 CNS)?
A: > 100 µM

Q: And the TGI (U251 CNS)?
A: > 100 µM

Q: What about the TGI (NCI-H522 lung) of the same molecule?
A: > 100 µM

Q: And the TGI (RXF-631 renal)?
A: > 100 µM

Q: What does the source list for O=C1CCC(c2ccccc2)=NN1c1nc2ccccc2s1?
A: TGI (OVCAR-3 ovarian): 42.4 µM; TGI (LOX IMVI melanoma): > 100 µM; TGI (HOP-18 NSCLC): > 100 µM; TGI (SK-OV-3 ovarian): 79.6 µM; TGI (SNB-19 CNS): > 100 µM; TGI (SW-620 colon): > 100 µM; TGI (HOP-62 NSCLC): > 100 µM; TGI (SK-MEL-28 melanoma): > 100 µM; TGI (HT29 colon): > 100 µM; TGI (786-0 renal): > 100 µM; TGI (SNB-75 CNS): > 79.4 µM; TGI (UACC-257 melanoma): > 80.2 µM; TGI (OVCAR-5 ovarian): > 100 µM; TGI (NCI-H226 lung): > 100 µM; TGI (OVCAR-8 ovarian): > 100 µM; TGI (M19-MEL melanoma): > 100 µM; TGI (HCC-2998 colon): > 61 µM; TGI (SK-MEL-5 melanoma): 53.1 µM; TGI (NCI/ADR-RES ovarian): 76.6 µM; TGI (UACC-62 melanoma): > 100 µM; TGI (M14 melanoma): > 100 µM; TGI (MALME-3M melanoma): 95.6 µM; TGI (BT-549 breast): 82.5 µM; TGI (SF-295 CNS): > 85.2 µM; TGI (DMS 114 small cell lung): > 100 µM; TGI (HL-60(TB) leukemia): 99.2 µM; TGI (XF 498 CNS): 86.7 µM; TGI (HS 578T breast): > 100 µM; TGI (SF-539 CNS): > 63.7 µM; TGI (RPMI-8226 leukemia): > 87.9 µM; TGI (COLO 205 colon): 18.1 µM; TGI (DMS 273 small cell lung): > 100 µM; TGI (LXFL 529 NSCLC): > 100 µM; TGI (OVCAR-4 ovarian): > 100 µM; TGI (RXF 393 renal): 34.1 µM; TGI (KM12 colon): > 100 µM; TGI (A549 NSCLC): > 100 µM; TGI (IGROV1 ovarian): > 100 µM; TGI (MCF7 breast): > 100 µM; TGI (HCT-15 colon): 99.1 µM; TGI (DLD-1 colon): > 100 µM; TGI (K-562 leukemia): > 100 µM; TGI (SK-MEL-2 melanoma): 42.5 µM; TGI (PC-3 prostate): 69.2 µM; TGI (NCI-H460 lung): > 64.4 µM; TGI (SN12C renal): > 94.1 µM; TGI (A498 renal): > 100 µM; TGI (CAKI-1 renal): > 100 µM; TGI (ACHN renal): > 100 µM; TGI (SNB-78 CNS): > 100 µM; TGI (UO-31 renal): > 100 µM; TGI (MDA-N): > 100 µM; TGI (SR leukemia): > 84.6 µM; TGI (MOLT-4 leukemia): > 94.4 µM; TGI (CCRF-CEM leukemia): 71.8 µM; TGI (NCI-H23 lung): > 84.6 µM; TGI (EKVX NSCLC): > 100 µM; TGI (TK-10 renal): > 88 µM; TGI (T-47D breast): 32.7 µM; TGI (MDA-MB-231 breast): 55.9 µM; TGI (DU-145 prostate): 64.6 µM; TGI (HOP-92 NSCLC): > 73.8 µM; TGI (MDA-MB-435): 69.7 µM; TGI (HCT-116 colon): > 88.2 µM; TGI (SF-268 CNS): > 83 µM; TGI (U251 CNS): > 100 µM; TGI (NCI-H522 lung): 59 µM
